# Reference: patent US10105357B2, “Indication of antibiotic drugs for preparation of cancer inhibition pharmaceutical composition” (LAUNX BIOMEDICAL CO., LTD., priority 2014, dated 2018)
# Counter-ions that a name gives are not always drawn. Like-named read-outs stand apart in the source and are kept apart here.
# Legend:
# Assay type in all cases: cell-based, human
# [1] = system: AGS (Gastric Adenocarcinoma); test: Cell viability analysis, gastric cancer AGS; details: 72 h; for viability at 10 µM: Homo sapiens
# [2] = system: PC3 (p53−) (Prostate Adenocarcinoma); test: Cell viability analysis, prostate cancer PC3; details: 72 h; for viability at 10 µM: Homo sapiens
# [3] = system: HI650 (Lung Adenocarcinoma); test: Cell viability analysis, lung cancer HI650; details: for viability at 10 µM: Homo sapiens, NCI-H1650, 72 h
# [4] = system: MKN-45 (Gastric Adenocarcinoma); test: Cell viability analysis, gastric cancer MKN-45; details: for viability at 10 µM: Homo sapiens, MKN-45, 72 h
# [5] = system: HL-60 (Acute Promyelocytic Leukemia); test: Cell viability analysis, leukemia HL-60; details: for viability at 10 µM: Homo sapiens, HL-60, 72 h
# [6] = system: LoVo (Colorectal Adenocarcinoma); test: Cell viability analysis, colon cancer LoVo; details: 72 h; for viability at 10 µM: Homo sapiens, LoVo, read-out: cell viability (survival rate), LoVo, drug 10 μM, 72 hours, WST-1, OD450 nm
# [7] = system: MCF7 (Mammary Gland, Adenocarcinoma); test: Cell viability analysis, breast cancer MCF7; details: for viability at 10 µM: Homo sapiens, MCF7, 72 h
# [8] = system: TSGH-8301 (Urinary Bladder Carcinoma); test: Cell viability analysis, bladder cancer TSGH-8301; details: 72 h; for viability at 10 µM: Homo sapiens
# [9] = system: HepG2 (Hepatocellular Carcinoma); test: Cell viability analysis, hepatic cancer HepG2; details: for viability at 10 µM: Homo sapiens, HepG2, 72 h
# cancer cell lines = test: Cell viability analysis (WST-1) on cancer cell lines; details: drug 10 μM, 72 hours, WST-1; Table 3
# [10] = system: A375 (Amelanotic Melanoma); test: Cell viability analysis, skin cancer A375; details: for viability at 10 µM: Homo sapiens, A-375, 72 h
# [11] = system: HeLa (Cervix Adenocarcinoma); test: Cell viability analysis, cervical cancer HeLa; details: 72 h; for viability at 10 µM: Homo sapiens, HeLa
# [12] = system: A549 (Lung Adenocarcinoma); test: Cell viability analysis, lung cancer A549; details: for viability at 10 µM: Homo sapiens, A549, 72 h
# [13] = drug 10 μM, 72 hours, WST-1, OD450 nm, read-out: cell viability (survival rate), AGS
# [14] = drug 10 μM, 72 hours, WST-1, OD450 nm, read-out: cell viability (survival rate), PC3
# [15] = drug 10 μM, 72 hours, WST-1, OD450 nm, read-out: cell viability (survival rate), H1650
# [16] = drug 10 μM, 72 hours, WST-1, OD450 nm, read-out: cell viability (survival rate), MKN-45
# [17] = drug 10 μM, 72 hours, WST-1, OD450 nm, read-out: cell viability (survival rate), HL-60
# [18] = drug 10 μM, 72 hours, WST-1, OD450 nm, read-out: cell viability (survival rate), MCF7
# [19] = drug 10 μM, 72 hours, WST-1, OD450 nm, read-out: cell viability (survival rate), TSGH
# [20] = drug 10 μM, 72 hours, WST-1, OD450 nm, read-out: cell viability (survival rate), HepG2
# [21] = drug 10 μM, 72 hours, WST-1, OD450 nm, read-out: cell viability (survival rate), A375
# [22] = drug 10 μM, 72 hours, WST-1, OD450 nm, read-out: cell viability (survival rate), HeLa
# [23] = drug 10 μM, 72 hours, WST-1, OD450 nm, read-out: cell viability (survival rate), A549
# [24] = read-out: cell viability (survival rate), AGS, drug 10 μM, 72 hours, WST-1, OD450 nm
# [25] = read-out: cell viability (survival rate), PC3, drug 10 μM, 72 hours, WST-1, OD450 nm
# [26] = read-out: cell viability (survival rate), H1650, drug 10 μM, 72 hours, WST-1, OD450 nm
# [27] = read-out: cell viability (survival rate), MKN-45, drug 10 μM, 72 hours, WST-1, OD450 nm
# [28] = read-out: cell viability (survival rate), HL-60, drug 10 μM, 72 hours, WST-1, OD450 nm
# [29] = read-out: cell viability (survival rate), MCF7, drug 10 μM, 72 hours, WST-1, OD450 nm
# [30] = read-out: cell viability (survival rate), TSGH, drug 10 μM, 72 hours, WST-1, OD450 nm
# [31] = read-out: cell viability (survival rate), HepG2, drug 10 μM, 72 hours, WST-1, OD450 nm
# [32] = read-out: cell viability (survival rate), A375, drug 10 μM, 72 hours, WST-1, OD450 nm
# [33] = read-out: cell viability (survival rate), HeLa, drug 10 μM, 72 hours, WST-1, OD450 nm
# [34] = read-out: cell viability (survival rate), A549, drug 10 μM, 72 hours, WST-1, OD450 nm
Compound,viability at 10 µM [6] [%],inhibition effect on different cancer cell lines (cancer cell lines),"viability at 10 µM [1, 24] [%]","viability at 10 µM [2, 25] [%]","viability at 10 µM [3, 26] [%]","viability at 10 µM [4, 27] [%]","viability at 10 µM [5, 28] [%]","viability at 10 µM [7, 29] [%]","viability at 10 µM [8, 30] [%]","viability at 10 µM [9, 31] [%]","viability at 10 µM [10, 32] [%]","viability at 10 µM [11, 33] [%]","viability at 10 µM [12, 34] [%]",also measured
"COc1cnc(NS(=O)(=O)c2ccc(N)cc2)nc1 [Sulfameter (Bayrena), Sulfameter]",89.9,significant inhibition effect,,,,,,,,,,,,"viability at 10 µM [1, 13]: 67.4%; viability at 10 µM [2, 14]: 90.2%; viability at 10 µM [3, 15]: 84.8%; viability at 10 µM [4, 16]: 58.6%; viability at 10 µM [5, 17]: 110%; viability at 10 µM [7, 18]: 51.7%; viability at 10 µM [8, 19]: 78.6%; viability at 10 µM [9, 20]: 95.5%; viability at 10 µM [10, 21]: 89.2%; viability at 10 µM [11, 22]: 78.4%; viability at 10 µM [12, 23]: 59%"
"C[C@]12C=CC(=O)C=C1CC[C@@H]1[C@@H]2[C@@H](O)C[C@@]2(C)[C@H]1CC[C@]2(O)C(=O)CO [Prednisolone (Hydroretrocortine), Prednisolone]",92.5,significant inhibition effect,124,83.3,82.5,67.8,99,45.5,86.2,82.7,71,78.7,71.3,
"Clc1cccc(Cl)c1N=C1NCCN1 [Clonidine hydrochloride (Catapres), Clonidine hydrochloride]",72.1,significant inhibition effect,36.4,40.7,64.1,48.8,128,68.8,28.5,83.7,62.5,72,37.3,
CC1(C)S[C@@H]2[C@H](NC(=O)[C@H](N)c3ccccc3)C(=O)N2[C@H]1C(=O)O [Ampicillin Trihydrate],,significant inhibition effect,,,,,,,,,,,,"cell viability (survival rate), AGS ([1]; human, 10 µM): 95.3; cell viability (survival rate), PC3 ([2]; human, 10 µM): 65.3; cell viability (survival rate), H1650 ([3]; human, 72 h, 10 µM): 63.6; cell viability (survival rate), MKN-45 ([4]; human, 72 h, 10 µM): 56.3; cell viability (survival rate), HL-60 ([5]; human, 72 h, 10 µM): 92.7; cell viability (survival rate), LoVo ([6]; human, 10 µM): 78.4; cell viability (survival rate), MCF7 ([7]; human, 72 h, 10 µM): 36.5; cell viability (survival rate), TSGH ([8]; human, 10 µM): 61.3; cell viability (survival rate), HepG2 ([9]; human, 72 h, 10 µM): 92.4; cell viability (survival rate), A375 ([10]; human, 72 h, 10 µM): 53.7; cell viability (survival rate), HeLa ([11]; human, 10 µM): 59.3; cell viability (survival rate), A549 ([12]; human, 72 h, 10 µM): 41.9"
C[N+]1(C)[C@@H]2C[C@@H](OC(=O)C(O)(c3cccs3)c3cccs3)C[C@H]1[C@@H]1O[C@@H]12 [Tiotropium Bromide hydrate],88.7,significant inhibition effect,73.1,83.8,40.9,86.1,87.8,80,54.7,90.9,86.3,124,62,
CCS(=O)(=O)CCn1c([N+](=O)[O-])cnc1C [tinidazole],78.5,significant inhibition effect,104,85.6,91.1,100,89,88,112,95.5,60.6,97.8,79.5,
"COc1ncnc(NS(=O)(=O)c2ccc(N)cc2)c1OC [Sulfadoxine (Sulphadoxine), Sulfadoxine]",92.9,significant inhibition effect,,,,,,,,,,,,"viability at 10 µM [1, 13]: 91.1%; viability at 10 µM [2, 14]: 119%; viability at 10 µM [3, 15]: 62.2%; viability at 10 µM [4, 16]: 87.4%; viability at 10 µM [5, 17]: 111%; viability at 10 µM [7, 18]: 132%; viability at 10 µM [8, 19]: 64.3%; viability at 10 µM [9, 20]: 90.5%; viability at 10 µM [10, 21]: 65.5%; viability at 10 µM [11, 22]: 78.2%; viability at 10 µM [12, 23]: 96.6%"
"Cc1nnc(NS(=O)(=O)c2ccc(N)cc2)s1 [Sulfamethizole (Proklar), Sulfamethizole]",86.4,significant inhibition effect,86.6,86,99.2,84.6,104,100,114,95,99.1,105,90.4,
Cc1onc(-c2c(Cl)cccc2Cl)c1C(=O)N[C@@H]1C(=O)N2[C@@H]1SC(C)(C)[C@@H]2C(=O)O [Dicloxacillin Sodium],92.4,significant inhibition effect,147,71.1,68.4,66.4,72.7,45.3,84.3,102,79,60.1,61.8,
